Measurements as given in paper PMC4925669, “Phytochemicals Mediate the Expression and Activity of OCTN2 as Activators of the PPARγ/RXRα Pathway” (Frontiers in Pharmacology, 2016).

Molecular target: T1, PPARγ (Homo sapiens, UniProt P37231)
T1 construct: gene PPARG; pcDNA3.1-PPARγ; with RXRα
T1 sequence (P37231 1-505): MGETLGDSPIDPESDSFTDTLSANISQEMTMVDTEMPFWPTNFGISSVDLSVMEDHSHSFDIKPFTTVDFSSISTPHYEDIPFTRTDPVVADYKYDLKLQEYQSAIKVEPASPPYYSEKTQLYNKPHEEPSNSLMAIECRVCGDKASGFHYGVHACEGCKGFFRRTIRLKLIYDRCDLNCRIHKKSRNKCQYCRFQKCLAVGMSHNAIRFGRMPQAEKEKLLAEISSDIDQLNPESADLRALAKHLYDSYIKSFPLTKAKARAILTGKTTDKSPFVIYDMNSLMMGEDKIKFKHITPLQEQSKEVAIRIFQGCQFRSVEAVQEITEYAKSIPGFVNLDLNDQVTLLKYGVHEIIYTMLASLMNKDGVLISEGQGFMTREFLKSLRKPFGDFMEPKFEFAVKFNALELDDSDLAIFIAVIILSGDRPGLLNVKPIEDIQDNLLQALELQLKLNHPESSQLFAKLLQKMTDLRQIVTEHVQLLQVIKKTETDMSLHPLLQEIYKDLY
T1 sequence (P19793 1-462 partner): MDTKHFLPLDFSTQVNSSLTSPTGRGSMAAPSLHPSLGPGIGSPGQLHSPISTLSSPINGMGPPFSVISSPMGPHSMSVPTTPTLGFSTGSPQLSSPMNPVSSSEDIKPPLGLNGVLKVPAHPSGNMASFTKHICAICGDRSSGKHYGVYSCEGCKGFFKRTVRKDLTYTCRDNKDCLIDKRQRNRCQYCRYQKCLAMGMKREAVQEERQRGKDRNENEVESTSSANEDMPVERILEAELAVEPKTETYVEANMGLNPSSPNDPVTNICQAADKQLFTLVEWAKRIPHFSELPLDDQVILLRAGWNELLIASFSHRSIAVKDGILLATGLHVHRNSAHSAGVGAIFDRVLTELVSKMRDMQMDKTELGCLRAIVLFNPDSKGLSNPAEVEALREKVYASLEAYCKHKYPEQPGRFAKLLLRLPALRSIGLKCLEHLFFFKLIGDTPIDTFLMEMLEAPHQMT
Test: PPRE/OCTN2 dual-luciferase transactivation assay in COS-7 cells transfected with PPARγ/RXRα, blocked by GW9662
Format: cell-based

SMILES: O=c1c(O)c(-c2ccc(O)cc2)oc2cc(O)cc(O)c12 [Kaempferol]
- Relative RFU fold change (% of blank): 189.89 ± 5.98 % of blank
